Laboratory results reported in US20090215707A1, “COMPOUND HAVING CYCLIC STRUCTURE AND USE THEREOF” (RIKEN, priority 2005, published 2009).

System: spleen cells
Experiment: Cytokine (IFN-γ, IL-4) production in mouse spleen cell culture, sandwich ELISA assay
Type: cell-based
Conditions: mouse spleen cells 2×10^5 cells/well, reagent at 2, 20 and 200 ng/mL, supernatant 4 days later, values only in FIG. 1-6
Experimental: The spleen cells removed from the spleen of mouse were individually prepared to 2×10^5 cells/well (96-well plate) using RPMI1640 culture medium (manufactured by Sigma Corporation) containing 10% fetal calf serum (FCS). A reagent was added to the culture medium at each of the concentrations of 2 ng/mL, 20 ng/mL and 200 ng/mL. The cytokine amount in the culture supernatant 4 days later was measured by sandwich ELISA assay. As the test substances, compounds 33 and 34 obtained in Examples 14 and 15 were used, and α-galactosylceramide represented by the following formula (a) (α-GC, abbreviated as compound a in the Figure) was used as a control substance. In addition, DMSO was used as a control.
The cytokine amount was measured by sandwich ELISA assay in the same manner as in Experimental Example 1 except that compound 23 obtained in Example 6 was used as a test substance. In addition, the time course changes in the amount of IFN-γ production are shown in FIG. 5, and the time course changes in the amount of IL-4 production are shown in FIG. 6.

SMILES	cytokine production pattern (IFN-γ and IL-4 production amount in culture supernatant)
CCCCCCCCCCCCCCCCCCCCCCCCCC(=O)N1[C@@H](CCCCCCCCCCCCCC)[C@@H](O)[C@@H]1COC1OC(CO)C(O)C(O)C1O (stereo partly shown) [compound 23]	ability to preferentially induce IL-4 production
CCCCCCCCCCCCCCCCCCCCCCCCCC(=O)N1[C@@H](CCCCCCCCCCCCC)C[C@@H](O)[C@@H]1COC1OC(CO)C(O)C(O)C1O (stereo partly shown) [compound 33]	IL-4 preferential cytokine production pattern
CCCCCCCCCCCCCCCCCCCCCCCCCC(=O)N1[C@@H](CCCCCCCCCCCCC)C[C@@H](O)[C@@H]1COC1OC(CO)C(O)C(O)C1O (stereo partly shown) [compound 34]	IL-4 preferential cytokine production pattern
CCCCCCCCCCCCCCCCCCCCCCCCCC(=O)N[C@@H](COC1OC(CO)C(O)C(O)C1O)[C@H](O)[C@H](O)CCCCCCCCCCCCCC (stereo partly drawn) [α-galactosylceramide, reference compound]	produced both IFN-γ and IL-4 in large amounts
